Test results taken from US10543223B2, “Mannose derivatives useful for treating pathologies associated with adherent E. coli” (ENTEROME, priority 2015, dated 2020).
Several values for one entry are separate records, joined by “and”; a condition that tells them apart may be missing. Identical values can stand only once. Like-named read-outs stand apart in the source and are kept apart here.

What was measured:
LF82 = assay: Hemagglutination inhibition assay, guinea pig erythrocytes, E. coli strain LF82; type: cell-based; details: Escherichia coli, read-out: MIC of haemagglutination
Experimental: (§1) Interaction of E. coli FimH adhesins with the glycocalyx of guinea pig erythrocytes forms a crosslinked network in the wells. Glycoconjugates, added in a 2-fold dilution series, prevent the agglutination reaction. The inhibition titer is defined as the lowest concentration of the glycoconjugate at which hemagglutination is still inhibited. Several strains of E. coli were grown statically overnight in LB at 37° C., washed three times in ice-cold phosphate-buffered saline, and redissolved. A 2-fold dilution of glycoconjugates with a starting concentration of 1 mM was prepared in 25 μL of PBS with 10% of DMSO. Importantly, the pipet tip was changed at every dilution step to avoid carry-over. Next, the bacterial solution (25 μL) was added to the 2-fold dilution series of the compound. Finally, 50 μL of guinea pig red blood cells, washed and diluted in the buffer to 5% of the blood volume, was added to reach 100 μL. The plates were left on ice for one night before read-out.
(§2) The anti-adhesive capacity of the inhibitors was evaluated against ten E. coli strains isolated from CD patients, urinary tract infections, and hip prosthesis infections.

[1] = tested on: uropathogenic E. coli strain UTI89; assay: Hemagglutination inhibition assay, guinea pig erythrocytes, E. coli strain UTI89; type: cell-based; details: Escherichia coli, read-out: MIC of haemagglutination
Experimental: as §1
Inhibition of E. coli Strain UTI89 Isolated from Patient with Urinary Tract Infection.
as §2

[2] = Plasma concentrations and pharmacokinetics after IV and PO administration to rats; type: in vivo, Sprague Dawley rats; details: for % AUCextra / AUC(0-inf) / AUC(0-t) / Cmax / Tmax: DMSO, based on mean data
Experimental: Plasma and faeces concentrations after administration of Compound 1b and for compound 13 of WO 2014/016361 at 1 mg/kg by intravenous route and 10 mg/kg by oral route to Sprague Dawley rats
At least 8 point calibration standards are run using standard conditions which consist to LC-MS/MS system with C18 column after precipitation of proteins with acetonitrile before the start of the analytical test.
For the plasma, 100 μL of blank rat plasma are directly spiked with the compounds before being precipitate with 300 μL of acetonitrile.
The concentration ranges tested are: • 0.5 ng/mL to 1000 ng/mL for plasma, • 4 to 2000 ng/g for faeces, corresponding to 1 to 500 ng/mL of faeces homogenate. 3. In-Life Part
12 male Sprague Dawley rats around 6-7 week old are used.
At prescribed times, blood is collected. Animals are briefly anaesthetised with Isoflurane® using an anaesthetic system (Équipement Vétérinaire Minerve) during blood samplings.
Blood samples are centrifuged at 2500 rpm at +4° C. (between 0 and 9° C.), the plasma is removed and placed into labelled polypropylene tubes. Individual plasma samples are stored frozen at −20° C. (target temperature) until analysis.
100 μL of the plasma sample are taken and 300 μL of acetonitrile are added. After protein precipitation, analysis is performed using LC-MS/MS determination according to previous analytical test results.
Concentrations of the samples are calculated directly from chromatograms after automatic integration by Analyst® 1.5.1 and expressed as ng/mL.
Mean plasma concentrations are calculated (when calculable, i.e. n≥2) using individual concentration and are expressed with the corresponding standard deviation value and variation coefficient (when calculable, i.e. n≥3), with
[formula] The individual plasma concentrations are tabulated for each rat and scheduled sampling time. Concentrations below the LLOQ are indicated by BLQ. All BLQ concentrations are substituted by zero for calculation of the descriptive statistics of the concentrations. 5. Results Estimation of pharmacokinetics parameters is performed using Kinetica® (Version 4.3—Thermo Electron Corporation—Philadelphia—USA). It was performed by using a one-compartment model approach, which considers the body as a single compartment in which the concentration is homogeneous. The following parameters are estimated: Cmax (ng/mL): maximal plasma concentration Tmax (h): first time to reach Cmax AUCt (ng/mL*h): area under the plasma concentration-time curve from administration up to the last quantifiable concentration at time t
[formula] “BLQ” stands for “Below the Limit of Quantification” ([…] for plasma). Compound 1b

[3] = Faeces concentrations and recovery after IV and PO administration to rats; type: in vivo, Sprague Dawley rats; details: 0-24 h; for dose excreted: Sprague Dawley, rat, faeces
Experimental: Plasma and faeces concentrations after administration of Compound 1b and for compound 13 of WO 2014/016361 at 1 mg/kg by intravenous route and 10 mg/kg by oral route to Sprague Dawley rats Blank rat faeces are homogenized with 3 volumes of UHQ water until obtention of a paste. Then 100 μL of the homogenate are spiked with the molecules and precipitated with 300 μL of acetonitrile. The concentration ranges tested are: • 0.5 ng/mL to 1000 ng/mL for plasma, • 4 to 2000 ng/g for faeces, corresponding to 1 to 500 ng/mL of faeces homogenate. 3. In-Life Part After administration, the animals are placed in individual metabolic cages in order to collect faeces samples during 24 hours. Faeces samples are collected over the 24 hours of the experiment. They are precisely weighed and 3 volumes of UHQ water are added. The mixture is homogeneized until obtention of a paste. Then 100 μL of the homogenate are taken and extracted with 300 μL of Acetonitrile. Analysis is performed using LC-MS/MS determination according to previous analytical test results.

[4] = male, Sprague Dawley, rat, plasma, IV 1 mg/kg
[5] = male, Sprague Dawley, rat, plasma, PO 10 mg/kg
[6] = IV 1 mg/kg, individual rats IV1-IV3, 1 mg/kg
[7] = PO 10 mg/kg, individual rats PO4-PO6, 10 mg/kg

SMILES: Cc1nc(-c2cnccn2)sc1C(=O)c1cnc(C[C@H]2O[C@H](CO)[C@@H](O)[C@H](O)[C@@H]2O)s1 [Compound 1b, 5-(4-methyl-2-(pyrazin-2-yl)thiazole-5-carbonyl) 2-((-α-D-mannopyranos-1-yl)methyl)thiazole]
- MIC (LF82): 0.024 µM
- MIC [1]: 6 µM
- Plasma concentration ([2]; IV 1 mg/kg, 0.083 h, individual rats IV1-IV3, 1 mg/kg): 470.2 ng/mL and 908.7 ng/mL
- Plasma concentration ([2]; IV 1 mg/kg, 0.5 h, individual rats IV1-IV3, 1 mg/kg): 108.2 ng/mL and 66.5 ng/mL
- Plasma concentration ([2]; IV 1 mg/kg, 2 h, individual rats IV1-IV3, 1 mg/kg): BLQ
- Plasma concentration ([2]; IV 1 mg/kg, 6 h, individual rats IV1-IV3): BLQ
- Plasma concentration ([2]; IV 1 mg/kg, 24 h, individual rats IV1-IV3): BLQ
- % AUCextra ([2]; IV 1 mg/kg): 0.35%
- Plasma concentration ([2]; PO 10 mg/kg, 0.5 h, individual rats PO4-PO6, 10 mg/kg): 8.1 ng/mL and 6.5 ng/mL
- Plasma concentration ([2]; PO 10 mg/kg, 1 h, individual rats PO4-PO6, 10 mg/kg): 6.5 ng/mL and BLQ
- Plasma concentration ([2]; PO 10 mg/kg, 2 h, individual rats PO4-PO6, 10 mg/kg): BLQ and 5.2 ng/mL
- Plasma concentration ([2]; PO 10 mg/kg, 6 h, individual rats PO4-PO6): BLQ
- Plasma concentration ([2]; PO 10 mg/kg, 24 h, individual rats PO4-PO6): BLQ
- % AUCextra ([2]; PO 10 mg/kg): 53.8%
- concentration at 0.083 h ([2]; male, Sprague Dawley, rat, plasma, iv, 1 mg/kg, IV 1 mg/kg, 0.083 h, individual rats IV1-IV3, read-out: Plasma concentration): 573 ng/mL
- concentration at 0.083 h ([2]; male, Sprague Dawley, rat, plasma, iv, 1 mg/kg, IV 1 mg/kg, 0.083 h, mean of 3 rats (BLQ = 0), read-out: Plasma concentration, mean): 650 ng/mL
- concentration at 0.5 h ([2]; male, Sprague Dawley, rat, plasma, iv, 1 mg/kg, IV 1 mg/kg, 0.5 h, individual rats IV1-IV3, read-out: Plasma concentration): 59.6 ng/mL
- concentration at 0.5 h ([2]; male, Sprague Dawley, rat, plasma, iv, 1 mg/kg, IV 1 mg/kg, 0.5 h, mean of 3 rats (BLQ = 0), read-out: Plasma concentration, mean): 78.1 ng/mL
- concentration at 2 h ([2]; male, Sprague Dawley, rat, plasma, iv, 1 mg/kg, IV 1 mg/kg, 2 h, individual rats IV1-IV3, read-out: Plasma concentration): 7.7 ng/mL
- concentration at 2 h ([2]; male, Sprague Dawley, rat, plasma, iv, 1 mg/kg, IV 1 mg/kg, 2 h, mean of 3 rats (BLQ = 0), read-out: Plasma concentration, mean): 2.6 ng/mL
- concentration at 6 h ([2]; male, Sprague Dawley, rat, plasma, iv, 1 mg/kg, IV 1 mg/kg, 6 h, mean of 3 rats (BLQ = 0), read-out: Plasma concentration, mean): 0 ng/mL
- concentration at 24 h ([2]; male, Sprague Dawley, rat, plasma, iv, 1 mg/kg, IV 1 mg/kg, 24 h, mean of 3 rats (BLQ = 0)): 0 ng/mL
- concentration at 0.5 h ([2]; male, Sprague Dawley, rat, plasma, po, 10 mg/kg, PO 10 mg/kg, 0.5 h, individual rats PO4-PO6, read-out: Plasma concentration): 6.7 ng/mL
- concentration at 0.5 h ([2]; male, Sprague Dawley, rat, plasma, po, 10 mg/kg, PO 10 mg/kg, 0.5 h, mean of 3 rats (BLQ = 0), read-out: Plasma concentration, mean): 7.1 ng/mL
- concentration at 1 h ([2]; male, Sprague Dawley, rat, plasma, po, 10 mg/kg, PO 10 mg/kg, 1 h, individual rats PO4-PO6, read-out: Plasma concentration): 5.5 ng/mL
- concentration at 1 h ([2]; male, Sprague Dawley, rat, plasma, po, 10 mg/kg, PO 10 mg/kg, 1 h, mean of 3 rats (BLQ = 0), read-out: Plasma concentration, mean): 4 ng/mL
- concentration at 2 h ([2]; male, Sprague Dawley, rat, plasma, po, 10 mg/kg, PO 10 mg/kg, 2 h, individual rats PO4-PO6, read-out: Plasma concentration): 6 ng/mL
- concentration at 2 h ([2]; male, Sprague Dawley, rat, plasma, po, 10 mg/kg, PO 10 mg/kg, 2 h, mean of 3 rats (BLQ = 0), read-out: Plasma concentration, mean): 3.7 ng/mL
- concentration at 6 h ([2]; male, Sprague Dawley, rat, plasma, po, 10 mg/kg, PO 10 mg/kg, 6 h, mean of 3 rats (BLQ = 0), read-out: Plasma concentration, mean): 0 ng/mL
- concentration at 24 h ([2]; male, Sprague Dawley, rat, plasma, po, 10 mg/kg, PO 10 mg/kg, 24 h, mean of 3 rats (BLQ = 0)): 0 ng/mL
- AUC(0-inf) [2, 4]: 267 ng·h/mL
- AUC(0-t) [2, 4]: 266 ng·h/mL
- Cmax [2, 4]: 651 ng/mL
- Tmax [2, 4]: 4.8 min
- bioavailability ([2]; male, Sprague Dawley, rat, plasma, PO 10 mg/kg vs IV 1 mg/kg, calculated based on AUCt, read-out: F (bioavailability)): 0.3%
- AUC(0-t) [2, 5]: 8 ng·h/mL
- Cmax [2, 5]: 7.07 ng/mL
- Tmax [2, 5]: 30 min
- AUC(0-inf) ([2]; male, Sprague Dawley, rat, plasma, PO 10 mg/kg, % AUC extra >20%: value given for indication): 18.2 ng·h/mL
- Faeces concentration [3, 6]: 3557 ng/g and 6433 ng/g and 2274 ng/g
- Faeces concentration (homogenate) [3, 6]: 889 ng/mL and 1608 ng/mL and 569 ng/mL
- Recovery in faeces [3, 6]: 9.2% and 6.8%
- Total amount of compound in faeces [3, 6]: 25318 ng and 22175 ng and 19840 ng
- Faeces concentration (homogenate), mean ([3]; IV 1 mg/kg, mean of 3 rats): 1022 ng/mL
- Faeces concentration, mean ([3]; IV 1 mg/kg, mean of 3 rats): 4088 ng/g
- Total amount of compound in faeces, mean ([3]; IV 1 mg/kg, mean of 3 rats): 22445 ng
- Faeces concentration [3, 7]: 146214 ng/g and 115495 ng/g and 146982 ng/g
- Faeces concentration (homogenate) [3, 7]: 36553 ng/mL and 28874 ng/mL and 36745 ng/mL
- Recovery in faeces [3, 7]: 41.6% and 45.1%
- Total amount of compound in faeces [3, 7]: 1335427 ng and 1081683 ng and 1171915 ng
- Faeces concentration (homogenate), mean ([3]; PO 10 mg/kg, mean of 3 rats): 34058 ng/mL
- Faeces concentration, mean ([3]; PO 10 mg/kg, mean of 3 rats): 136230 ng/g
- Total amount of compound in faeces, mean ([3]; PO 10 mg/kg, mean of 3 rats): 1196341 ng
- dose excreted ([3]; iv, 1 mg/kg, IV 1 mg/kg, individual rats IV1-IV3, read-out: Recovery in faeces): 10.5%
- dose excreted ([3]; iv, 1 mg/kg, IV 1 mg/kg, mean of 3 rats, read-out: Recovery in faeces, mean): 8.9%
- dose excreted ([3]; po, 10 mg/kg, PO 10 mg/kg, individual rats PO4-PO6, read-out: Recovery in faeces): 55.6%
- dose excreted ([3]; po, 10 mg/kg, PO 10 mg/kg, mean of 3 rats, read-out: Recovery in faeces, mean (quantity found in faeces out of the administered quantity)): 47.4%
